Drawing on patent US20230026856A1, “HETEROCYCLIC COMPOUNDS AND METHODS OF USE THEREOF” (SPARCBIO LLC, priority 2020, published 2023), this text covers IC50 for 24 compounds.

This experiment addresses KRAS G12C protein (Homo sapiens, UniProt P01116, G12C). The experiment in a line: Nucleotide exchange assay, Method III (TR-FRET, association of KRAS G12C with Raf-RBD, SOS1-mediated exchange). The settings on record: overnight (18 hr) incubation with GDP-bound KRAS G12C. The format is biochemical. How it is done: Method III. Inhibition of SOS1-mediated exchange of GDP for GTP on the KRAS G12C protein was measured in a biochemical assay that monitors association of KRAS G12C protein with the Ras-binding domain of Raf (Raf-RBD), where the association is coupled to exchange of GDP to GTP on the KRAS G12C protein. The assay was performed at WuXi AppTec (Shanghai, China). Compounds were serially diluted in 3-fold dilutions to 11 concentrations and spotted into the wells of an assay plate in a total volume of 150 nL DMSO per well. A 2× enzyme mix was prepared by diluting GDP-bound, His-tagged KRAS G12C to 25 nM in assay buffer. 10 μL/well of 2× enzyme mix was added to all wells, and the plate was sealed and incubated overnight (18 hr) at 23° C. 4×SOS1/GDP and 4×SOS1/GTP were prepared in assay buffer. 5 μL/well of 4×SOS1/GDP mix was added to negative control wells, 5 μL/well of 4×SOS1/GTP mix was added to the remaining wells, and the plate was further incubated at 23° C. for 1 hr. Finally, FLAG-tagged Raf-RBD is added to the reaction mixture along with a pair of FRET donor- and acceptor-conjugated antibodies specific for the FLAG-tagged Raf-RBD and His-tagged KRAS G12C proteins. A 4× Raf-RBD/Tb-anti-FLAG/D2-anti-His mix was prepared in assay buffer, and 5 μL/well of the mix was added to all wells, followed by incubation at room temperature for 2 hr. The TR-FRET signals, which increase with association of KRAS G12C and Raf-RBD, were measured on a Perkin Elmer Envision 2104 plate reader, and data were analyzed by non-linear regression to obtain IC50 values for inhibition by compounds. Table 2 includes results of the assay of Method III. ‘+++’ indicates IC50 values ≤300 nM, ‘++’ indicates IC50 values between 300 nM-3 μM, and ‘+’ indicates IC50 values ≥3 μM.

Chain of KRAS G12C protein (P01116 1-188 isoform P01116-2 G12C): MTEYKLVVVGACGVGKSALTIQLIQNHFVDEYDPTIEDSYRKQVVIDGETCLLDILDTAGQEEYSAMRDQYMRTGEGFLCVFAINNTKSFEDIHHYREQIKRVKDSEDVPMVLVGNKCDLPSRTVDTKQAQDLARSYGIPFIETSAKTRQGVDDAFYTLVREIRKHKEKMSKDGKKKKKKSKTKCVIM

What is called IC50 is the concentration that inhibits the measured activity by half. Low values mean greater potency, high ones weaker potency. Turning to `C=CC(=O)N1CCC(n2c(=O)c(=O)n(-c3c(C)ccnc3C(C)C)c3nc(-c4c(O)cccc4F)c(F)cc32)C[C@H]1C` (single isomer, unassigned) [2 (Isomer A)], the IC50 was no less than 3 µM.
`C=CC(=O)N1CCC(n2c(=O)c(=O)n(-c3c(C)ccnc3C(C)C)c3nc(-c4c(O)cccc4F)c(F)cc32)C[C@@H]1C` (single isomer, unassigned) [4 (Isomer B)] showed an IC50 of no less than 3 µM.
On to `C=CC(=O)N1CCC(c2c(C(=O)NC)c(=O)n(-c3c(C)ccnc3C(C)C)c3nc(-c4c(O)cccc4F)c(F)cc23)CC1` (single isomer, unassigned) [68 (Isomer A), 4-(1-acryloylpiperidin-4-yl)-6-fluoro-7-(2-fluoro-6-hydroxyphenyl)-1-(2-isopropyl-4-methylpyridin-3-yl)-N-methyl-2-oxo-1,2-dihydro-1,8-naphthyridine-3-carboxamide], for which the IC50 lay in the range of 0.3 to 3 µM.
Next, `C=CC(=O)N1CCC(c2c(C(=O)NC)c(=O)n(-c3c(C)ccnc3C(C)C)c3nc(-c4c(O)cccc4F)c(F)cc23)CC1` (single isomer, unassigned) [68 (Isomer B), 4-(1-acryloylpiperidin-4-yl)-6-fluoro-7-(2-fluoro-6-hydroxyphenyl)-1-(2-isopropyl-4-methylpyridin-3-yl)-N-methyl-2-oxo-1,2-dihydro-1,8-naphthyridine-3-carboxamide]: no less than 3 µM; `C=CC(=O)N1CCN(c2c(C(=O)NC)c(=O)n(-c3c(C)ccnc3C(C)C)c3nc(-c4c(O)cccc4F)c(F)cc23)[C@@H](C)C1` (single isomer, unassigned) [76 (Isomer B)]: no less than 3 µM; `C=CC(=O)N1CCN(c2c(C(=O)NC)c(=O)n(-c3c(C)ccnc3C(C)C)c3nc(-c4c(O)cccc4F)c(F)cc23)C[C@@H]1CC#N` (single isomer, unassigned) [80 (Isomer B)]: 0.3 to 3 µM.
The same measure for `C=CC(=O)N1CCN(c2c(C(=O)NC)c(=O)n(-c3c(C)ccnc3C(C)C)c3nc(-c4c(C)ccc5[nH]ncc45)c(F)cc23)C[C@H]1C` (single isomer, unassigned) [114 (Isomer A)]: 0.3 to 3 µM.
Next, `C=CC(=O)N1CCN(c2c(C(=O)NC)c(=O)n(-c3c(C)ccnc3C(C)C)c3nc(-c4c(C)ccc5[nH]ncc45)c(F)cc23)C[C@H]1C` (single isomer, unassigned) [114 (Isomer B)]: no more than 0.3 µM.
`C=CC(=O)N1CCN(c2c(C(=O)NC)c(=O)n(-c3c(C)ccnc3C(C)C)c3nc(-c4c(C)ccc5[nH]ncc45)c(F)cc23)CC1` (single isomer, unassigned) [116 (Isomer B), 4-(4-acryloylpiperazin-1-yl)-6-fluoro-1-(2-isopropyl-4-methylpyridin-3-yl)-N-methyl-7-(5-methyl-1H-indazol-4-yl)-2-oxo-1,2-dihydro-1,8-naphthyridine-3-carboxamide] had an IC50 of 0.3 to 3 µM.
The compound `C=CC(=O)N1CCN(c2c(S(C)(=O)=O)c(=O)n(-c3c(C)ccnc3C(C)C)c3nc(-c4c(O)cccc4F)c(F)cc23)CC1` (single isomer, unassigned) [123 (Isomer B), 4-(4-acryloylpiperazin-1-yl)-6-fluoro-7-(2-fluoro-6-hydroxyphenyl)-1-(2-isopropyl-4-methylpyridin-3-yl)-3-(methylsulfonyl)-1,8-naphthyridin-2(1H)-one] yielded an IC50 of 0.3 to 3 µM.
`C=CC(=O)N1CCN(c2c(S(C)(=O)=O)c(=O)n(-c3c(C)ccnc3C(C)C)c3nc(-c4c(C)ccc5[nH]ncc45)c(F)cc23)CC1` (single isomer, unassigned) [124 (Isomer B), 4-(4-acryloylpiperazin-1-yl)-6-fluoro-1-(2-isopropyl-4-methylpyridin-3-yl)-7-(5-methyl-1H-indazol-4-yl)-3-(methylsulfonyl)-1,8-naphthyridin-2(1H)-one] showed a 50% inhibitory concentration (IC50) of no less than 3 µM.
Next, `C=CC(=O)N1CCN(c2c(S(C)(=O)=O)c(=O)n(-c3c(C)ccnc3C(C)C)c3nc(-c4c(O)cccc4F)c(F)cc23)[C@@H](C)C1` (single isomer, unassigned) [131 (Isomer B)]: no less than 3 µM.
Next, `C=CC(=O)N1CCN(c2c(S(C)(=O)=O)c(=O)n(-c3c(C)ccnc3C(C)C)c3nc(-c4c(O)cccc4F)c(F)cc23)C[C@@H]1CC#N` (single isomer, unassigned) [135 (Isomer A)]: no less than 3 µM.
The same measure for `C=CC(=O)N1CCN(c2c(S(C)(=O)=O)c(=O)n(-c3c(C)ccnc3C(C)C)c3nc(-c4c(O)cccc4F)c(F)cc23)C[C@H]1C` (single isomer, unassigned) [143 (Isomer A)]: 0.3 to 3 µM; for `C=CC(=O)N1CCN(c2c(S(C)(=O)=O)c(=O)n(-c3c(C)ccnc3C(C)C)c3nc(-c4c(O)cccc4F)c(F)cc23)C[C@H]1C` (single isomer, unassigned) [143 (Isomer B)]: no more than 0.3 µM; for `C=CC(=O)N1CCN(c2c(S(C)(=O)=O)c(=O)n(-c3c(C)ccnc3C(C)C)c3c(F)c(-c4c(O)cccc4F)c(Cl)cc23)CC1` (single isomer, unassigned) [176 (Isomer A), 4-(4-acryloylpiperazin-1-yl)-6-chloro-8-fluoro-7-(2-fluoro-6-hydroxyphenyl)-1-(2-isopropyl-4-methylpyridin-3-yl)-3-(methylsulfonyl)quinolin-2(1H)-one]: no less than 3 µM.
`C=CC(=O)N1CCN(c2c(S(C)(=O)=O)c(=O)n(-c3c(C)ccnc3C(C)C)c3c(F)c(-c4c(O)cccc4F)c(Cl)cc23)CC1` (single isomer, unassigned) [176 (Isomer B), 4-(4-acryloylpiperazin-1-yl)-6-chloro-8-fluoro-7-(2-fluoro-6-hydroxyphenyl)-1-(2-isopropyl-4-methylpyridin-3-yl)-3-(methylsulfonyl)quinolin-2(1H)-one] came in with an IC50 of no more than 0.3 µM.
With `C=CC(=O)N1CCN(c2c(S(C)(=O)=O)c(=O)n(-c3c(C)ccnc3C(C)C)c3c(F)c(-c4c(O)cccc4F)c(Cl)cc23)CC1` (single isomer, unassigned) [176 (Isomer C), 4-(4-acryloylpiperazin-1-yl)-6-chloro-8-fluoro-7-(2-fluoro-6-hydroxyphenyl)-1-(2-isopropyl-4-methylpyridin-3-yl)-3-(methylsulfonyl)quinolin-2(1H)-one], the IC50 was in the range of 0.3 to 3 µM.
The same measure for `C=CC(=O)N1CCN(c2c(S(C)(=O)=O)c(=O)n(-c3c(C)ccnc3C(C)C)c3c(F)c(-c4c(C)ccc5[nH]ncc45)c(Cl)cc23)CC1` (single isomer, unassigned) [187 (Isomer A), 4-(4-acryloylpiperazin-1-yl)-6-chloro-8-fluoro-1-(2-isopropyl-4-methylpyridin-3-yl)-7-(5-methyl-1H-indazol-4-yl)-3-(methylsulfonyl)quinolin-2(1H)-one]: 0.3 to 3 µM; for `C=CC(=O)N1CCN(c2c(S(C)(=O)=O)c(=O)n(-c3c(C)ccnc3C(C)C)c3c(F)c(-c4c(C)ccc5[nH]ncc45)c(Cl)cc23)CC1` (single isomer, unassigned) [187 (Isomer B), 4-(4-acryloylpiperazin-1-yl)-6-chloro-8-fluoro-1-(2-isopropyl-4-methylpyridin-3-yl)-7-(5-methyl-1H-indazol-4-yl)-3-(methylsulfonyl)quinolin-2(1H)-one]: no more than 0.3 µM.
The compound `C=CC(=O)N1CCN(c2c(S(C)(=O)=O)c(=O)n(-c3c(C)ccnc3C(C)C)c3c(F)c(-c4c(C)ccc5[nH]ncc45)c(Cl)cc23)CC1` (single isomer, unassigned) [187 (Isomer D), 4-(4-acryloylpiperazin-1-yl)-6-chloro-8-fluoro-1-(2-isopropyl-4-methylpyridin-3-yl)-7-(5-methyl-1H-indazol-4-yl)-3-(methylsulfonyl)quinolin-2(1H)-one] yielded an IC50 of no less than 3 µM.
For the compound `C=CC(=O)N1CCN(c2c(S(C)(=O)=O)c(=O)n(-c3c(C)ccnc3C(C)C)c3nc(-c4cccc5sc(N)nc45)c(F)cc23)C[C@H]1C` (single isomer, unassigned) [249 (Isomer B)], the IC50 was in the range of 0.3 to 3 µM.
The same measure for `C=CC(=O)N1CCN(c2c(S(C)(=O)=O)c(=O)n(-c3c(C)ccnc3C(C)C)c3nc(-c4cccc5sc(N)nc45)c(F)cc23)CC1` (single isomer, unassigned) [250 (Isomer B), 4-(4-acryloylpiperazin-1-yl)-7-(2-aminobenzo[d]thiazol-4-yl)-6-fluoro-1-(2-isopropyl-4-methylpyridin-3-yl)-3-(methylsulfonyl)-1,8-naphthyridin-2(1H)-one]: 0.3 to 3 µM; for `C=CC(=O)N1CCN(c2c(S(C)(=O)=O)c(=O)n(-c3c(C)ccnc3C(C)C)c3c(F)c(-c4cccc5sc(N)nc45)c(Cl)cc23)CC1` (single isomer, unassigned) [252 (Isomer A), 4-(4-acryloylpiperazin-1-yl)-7-(2-aminobenzo[d]thiazol-4-yl)-6-chloro-8-fluoro-1-(2-isopropyl-4-methylpyridin-3-yl)-3-(methylsulfonyl)quinolin-2(1H)-one]: no more than 0.3 µM.
